Data as given in the NIST ThermoML archive (doi:10.1021/acs.jced.7b00466).
Where “and” joins values, the source holds several entries; their conditions need not be identical. Equal entries are not always repeated.

Assay: an = ratio of the nth substance listed
Conditions: for viscosity / speed of sound / mass density: 102 kPa, Liquid; for viscosity: Concentric cylinders viscometry; for speed of sound: Frequency=3 MHz, Sing-around technique in a fixed-path interferometer; for mass density: Vibrating tube method; for surface tension liquid-gas: 294.5 K, Pendant drop shape

CCCCC1CCCCC1 [butylcyclohexane] + CCCCCCCCCCCCCCCC
Conditions	mass density [kg/m3]	speed of sound [m/s]	viscosity [mPa·s]
293.15 K, a2 = 0.25	791.29	1334.4	1.68
293.15 K, a2 = 0.3333	789.5	1335.5	1.78
293.15 K, a2 = 0.3335	789.61	1335.2	1.78
293.15 K, a2 = 0.6666	785.19	–	2.08
293.15 K, a2 = 0.6667	–	1339.5	–
293.15 K, a2 = 0.9992	782.68	1342.9	2.29
293.15 K, a2 = 0.9997	782.68	1342.9	2.29
293.15 K, a2 = 1.5	780.35	1345.6	2.5
293.15 K, a2 = 2.997	777.44	1349.7	2.84
293.15 K, a2 = 3.001	777.44	1350	2.84
293.15 K, a2 = 3.998	776.54	1350.8	2.96
303.15 K, a2 = 0.25	784.02	1295.9	1.4
303.15 K, a2 = 0.3333	782.27	1297.1	1.5
303.15 K, a2 = 0.3335	782.37	1296.8	1.49
303.15 K, a2 = 0.6666	778.07	–	1.71
303.15 K, a2 = 0.6667	–	1301.7	–
303.15 K, a2 = 0.9992	775.6	1305.2	1.87
303.15 K, a2 = 0.9997	775.6	1305.2	1.87
303.15 K, a2 = 1.5	773.33	1308.2	2.04
303.15 K, a2 = 2.997	770.54	1312.4	2.29
303.15 K, a2 = 3.001	770.45	1312.7	2.29
303.15 K, a2 = 3.998	769.57	1313.6	2.37
313.15 K, a2 = 0.25	776.71	1257.8	1.19
313.15 K, a2 = 0.3333	775.01	1259.3	1.26
313.15 K, a2 = 0.3335	775.12	1259.1	1.26
313.15 K, a2 = 0.6666	770.92	–	1.44
313.15 K, a2 = 0.6667	–	1264.4	–
313.15 K, a2 = 0.9992	768.51	1268.2	1.56
313.15 K, a2 = 0.9997	768.51	1268.2	1.56
313.15 K, a2 = 1.5	766.29	1271.3	1.69
313.15 K, a2 = 2.997	763.47	1275.9	1.88
313.15 K, a2 = 3.001	763.47	1276	1.88
313.15 K, a2 = 3.998	762.61	1277	1.95
323.15 K, a2 = 0.25	769.38	1220.2	1.03
323.15 K, a2 = 0.3333	767.73	1222.1	1.08
323.15 K, a2 = 0.3335	767.83	1222	1.08
323.15 K, a2 = 0.6667	763.75	1227.5	1.23
323.15 K, a2 = 0.9992	761.41	1231.8	1.33
323.15 K, a2 = 0.9997	761.41	1231.8	1.33
323.15 K, a2 = 1.5	759.24	1234.9	1.42
323.15 K, a2 = 2.997	756.48	1239.9	1.58
323.15 K, a2 = 3.001	756.48	1240.1	1.58
323.15 K, a2 = 3.998	755.63	1240.9	1.62
333.15 K, a2 = 0.25	762.02	1183.2	0.898
333.15 K, a2 = 0.3333	760.42	1185.7	0.942
333.15 K, a2 = 0.3335	760.52	1185.6	0.942
333.15 K, a2 = 0.6667	756.56	1191.2	1.06
333.15 K, a2 = 0.9992	754.28	1196.2	1.14
333.15 K, a2 = 0.9997	754.28	1196.2	1.14
333.15 K, a2 = 1.5	752.17	1199.1	1.22
333.15 K, a2 = 2.997	749.48	1204.7	1.34
333.15 K, a2 = 3.001	749.49	1205	1.34
333.15 K, a2 = 3.998	748.65	1205.4	1.38
343.15 K, a2 = 0.25	754.6	–	0.789
343.15 K, a2 = 0.3333	753.1	–	0.827
343.15 K, a2 = 0.3335	753.2	–	0.821
343.15 K, a2 = 0.6667	749.4	–	0.926
343.15 K, a2 = 0.9992	747.2	–	0.991
343.15 K, a2 = 0.9997	747.2	–	0.991
343.15 K, a2 = 1.5	745.1	–	1.06
343.15 K, a2 = 2.997	742.5	–	1.16
343.15 K, a2 = 3.001	742.5	–	1.16
343.15 K, a2 = 3.998	741.4	–	1.19

Conditions	surface tension liquid-gas [mN/m]
a2 = 0.25	26.6
a2 = 0.3333	26.7
a2 = 0.3335	26.9
a2 = 0.6667	26.9
a2 = 0.9992	26.9
a2 = 0.9997	26.9
a2 = 1.5	26.9
a2 = 2.997	27.1
a2 = 3.001	27
a2 = 3.998	27

CCCCC1CCCCC1 [butylcyclohexane] + CCCCCCCCCCCC
Conditions	mass density	speed of sound	viscosity
293.15 K, a2 = 0.3332	783.9 kg/m3	1317.5 m/s and 1317.3 m/s	1.34 mPa·s
293.15 K, a2 = 1	770.6 kg/m3	1309 m/s and 1308.8 m/s	1.38 mPa·s
293.15 K, a2 = 2.995	759 kg/m3	1302.4 m/s	1.44 mPa·s
293.15 K, a2 = 3.001	759 kg/m3	1302.6 m/s	1.42 mPa·s
303.15 K, a2 = 0.3332	776.5 kg/m3	1278.1 m/s and 1278.4 m/s	1.13 mPa·s
303.15 K, a2 = 1	763.3 kg/m3	1270.4 m/s and 1270.1 m/s	1.17 mPa·s
303.15 K, a2 = 2.995	751.7 kg/m3	1264 m/s	1.22 mPa·s
303.15 K, a2 = 3.001	751.7 kg/m3	1264.3 m/s	1.2 mPa·s
313.15 K, a2 = 0.3332	769.1 kg/m3	1239.7 m/s and 1239.9 m/s	0.972 mPa·s and 0.974 mPa·s
313.15 K, a2 = 1	755.9 kg/m3	1232.3 m/s and 1232 m/s	1.01 mPa·s and 1 mPa·s
313.15 K, a2 = 2.995	744.4 kg/m3	1226.2 m/s	1.04 mPa·s
313.15 K, a2 = 3.001	744.4 kg/m3	1226.5 m/s	1.02 mPa·s
323.15 K, a2 = 0.3332	761.6 kg/m3	1201.8 m/s and 1202 m/s	0.845 mPa·s and 0.846 mPa·s
323.15 K, a2 = 1	748.5 kg/m3	1194.8 m/s and 1194.6 m/s	0.88 mPa·s and 0.865 mPa·s
323.15 K, a2 = 2.995	737.1 kg/m3	1189 m/s	0.896 mPa·s
323.15 K, a2 = 3.001	737.1 kg/m3	1189.3 m/s	0.883 mPa·s
333.15 K, a2 = 0.3332	754.1 kg/m3	1164.8 m/s and 1164.7 m/s	0.743 mPa·s and 0.741 mPa·s
333.15 K, a2 = 1	741.1 kg/m3	1158.1 m/s and 1157.9 m/s	0.774 mPa·s and 0.757 mPa·s
333.15 K, a2 = 2.995	729.7 kg/m3	1152.5 m/s	0.788 mPa·s
333.15 K, a2 = 3.001	729.7 kg/m3	1152.9 m/s	0.77 mPa·s
343.15 K, a2 = 0.3332	746.5 kg/m3	–	0.656 mPa·s
343.15 K, a2 = 1	733.6 kg/m3 and 733.7 kg/m3	–	0.686 mPa·s and 0.668 mPa·s
343.15 K, a2 = 2.995	722.5 kg/m3	–	0.699 mPa·s
343.15 K, a2 = 3.001	722.2 kg/m3	–	0.678 mPa·s

Conditions	surface tension liquid-gas [mN/m]
a2 = 0.3332	26.1
a2 = 0.3335	26.1
a2 = 0.9998	25.8
a2 = 1	25.6
a2 = 2.997	25.4
a2 = 3.001	25.3
